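Step 1: Grow cells in 96-well plates. Step 2: Expose to compound for 48 hours at 5 concentrations. Step 3: Interpolate endpoints linearly; if unreached, use highest concentration. GI50 = concentration required for 50% inhibition of growth.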 Active and inactive are the calls of the source. Rule as the data show it: active = GI50 up to about 1.1 µM and inactive = higher.
Legend:
Assay in all cases: NCI tumour cell line growth inhibition, 48 h
UO-31 = system: UO-31
KM12 = system: KM12
SN12C = system: SN12C
HL-60 = system: HL-60
SF-268 = system: SF-268
UACC-62 = system: UACC-62
COLO 205 = system: COLO 205
UACC-257 = system: UACC-257
K562 = system: K562
RXF 393 = system: RXF 393
MOLT-4 = system: MOLT-4
NCI-H522 = system: NCI-H522
SK-MEL-5 = system: SK-MEL-5
CCRF-CEM = system: CCRF-CEM
ACHN = system: ACHN
HOP-62 = system: HOP-62
A498 = system: A498
NCI-H23 = system: NCI-H23
SF-539 = system: SF-539
OVCAR-3 = system: OVCAR-3

Measured: GI50

COC(=O)c1c(C#N)c(N)nc2c1CCC2
inactive: UO-31 69.7 µM | KM12 > 100 µM | SN12C > 100 µM | HL-60 > 100 µM | SF-268 > 100 µM | UACC-62 > 100 µM | COLO 205 > 100 µM | UACC-257 > 100 µM | K562 > 100 µM | RXF 393 > 100 µM | MOLT-4 > 100 µM | NCI-H522 > 100 µM | SK-MEL-5 > 100 µM | CCRF-CEM 99.8 µM | ACHN > 100 µM | HOP-62 > 100 µM | A498 > 100 µM | NCI-H23 > 100 µM

O=C(C#Cc1cnc(O)nc1O)c1ccccc1
inactive: UO-31 17.4 µM | KM12 15.2 µM | SN12C 4.37 µM | HL-60 3.3 µM | SF-268 13.6 µM | UACC-62 7.28 µM | COLO 205 7.23 µM | UACC-257 11.5 µM | K562 2.98 µM | RXF 393 1.7 µM | MOLT-4 2.48 µM | SF-539 4.04 µM | SK-MEL-5 12.7 µM | CCRF-CEM 1.97 µM | ACHN 14.5 µM | HOP-62 18.5 µM | OVCAR-3 2.09 µM | A498 15.5 µM | NCI-H23 13.7 µM

C=Cc1c(C)c(O)cc2c1-c1ccc(O)c(C)c1CC2
inactive: UO-31 14.8 µM | KM12 14.3 µM | SN12C 17.5 µM | HL-60 15 µM | SF-268 18.5 µM | UACC-62 7.5 µM | COLO 205 19.3 µM | UACC-257 14.8 µM | RXF 393 10.9 µM | MOLT-4 11.6 µM | SF-539 13.5 µM | NCI-H522 19.4 µM | SK-MEL-5 16 µM | CCRF-CEM 12.5 µM | ACHN 29.4 µM | HOP-62 26.7 µM | OVCAR-3 25.8 µM | A498 11.6 µM | NCI-H23 17.1 µM

COc1cccc(N2C(=O)C3CC(CC(C)(C)C)c4c([nH]c5ccccc45)C3C2=O)c1 (stereo not drawn)
inactive: KM12 > 10 µM | SN12C 6 µM | HL-60 > 10 µM | SF-268 > 10 µM | UACC-62 > 10 µM | COLO 205 > 10 µM | UACC-257 > 10 µM | K562 > 10 µM | RXF 393 > 10 µM | MOLT-4 > 10 µM | SF-539 2.56 µM | NCI-H522 > 10 µM | SK-MEL-5 > 10 µM | CCRF-CEM > 10 µM | ACHN > 10 µM | HOP-62 9.16 µM | OVCAR-3 > 10 µM | A498 > 10 µM | NCI-H23 > 10 µM

C1CN2CCO[SiH](O1)OCC2
inactive: UO-31 > 100 µM | KM12 > 100 µM | SN12C > 100 µM | HL-60 > 100 µM | SF-268 > 100 µM | UACC-62 > 100 µM | COLO 205 > 100 µM | UACC-257 > 100 µM | K562 > 100 µM | RXF 393 > 100 µM | MOLT-4 > 100 µM | SF-539 > 100 µM | NCI-H522 > 100 µM | SK-MEL-5 > 100 µM | CCRF-CEM > 100 µM | ACHN > 100 µM | OVCAR-3 > 100 µM | A498 > 100 µM | NCI-H23 > 100 µM

CCOC(=O)C1CCCCN1C(=O)Cc1c[nH]c2ccccc12 (stereo not drawn)
inactive: KM12 41.3 µM | SN12C > 100 µM | HL-60 31.3 µM | SF-268 45.2 µM | UACC-62 45.4 µM | COLO 205 66.2 µM | UACC-257 79.3 µM | K562 68.9 µM | RXF 393 76.9 µM | MOLT-4 27.4 µM | SF-539 > 100 µM | NCI-H522 31.4 µM | CCRF-CEM 42.5 µM | ACHN 71.4 µM | HOP-62 87.9 µM | OVCAR-3 52.6 µM | A498 33.9 µM | NCI-H23 80.2 µM

N#Cc1c(-c2ccco2)cc(-c2ccc(NCc3nc4ccccc4[nH]3)cc2)nc1N
inactive: UO-31 16.6 µM | KM12 18.7 µM | SN12C 22.5 µM | HL-60 20 µM | SF-268 30.1 µM | UACC-62 16.6 µM | COLO 205 21.6 µM | K562 24.3 µM | RXF 393 16 µM | MOLT-4 15.3 µM | SF-539 19.5 µM | NCI-H522 18.8 µM | SK-MEL-5 16 µM | CCRF-CEM 27.4 µM | ACHN 26.5 µM | HOP-62 26.7 µM | OVCAR-3 20.1 µM | A498 25 µM | NCI-H23 20.2 µM

O=C1CC(C(O)(C(F)(F)F)C(F)(F)Cl)CCC1C(O)(C(F)(F)F)C(F)(F)Cl (stereo not drawn)
inactive: KM12 > 10 µM | SN12C > 10 µM | HL-60 > 10 µM | SF-268 > 10 µM | UACC-62 7.55 µM | COLO 205 4.6 µM | UACC-257 4.18 µM | K562 > 10 µM | RXF 393 3.49 µM | MOLT-4 > 10 µM | SF-539 7.18 µM | NCI-H522 8.77 µM | SK-MEL-5 > 10 µM | CCRF-CEM > 10 µM | ACHN > 10 µM | HOP-62 > 10 µM | OVCAR-3 > 10 µM | A498 6.58 µM | NCI-H23 9.55 µM

COC(=O)/C(=N\Nc1nc(S)nn1N)C(C#N)c1ccccc1 (stereo not drawn)
inactive: UO-31 > 100 µM | KM12 > 100 µM | SN12C > 100 µM | HL-60 > 100 µM | SF-268 > 100 µM | UACC-62 > 100 µM | COLO 205 > 100 µM | UACC-257 > 100 µM | K562 > 100 µM | RXF 393 > 100 µM | MOLT-4 > 100 µM | NCI-H522 > 100 µM | SK-MEL-5 > 100 µM | CCRF-CEM > 100 µM | ACHN > 100 µM | HOP-62 > 100 µM | OVCAR-3 > 100 µM | A498 > 100 µM | NCI-H23 > 100 µM

COc1ccccc1OCC(=N/NC(=O)c1ccncc1)/N=C/c1ccncc1
inactive: KM12 > 100 µM | SN12C > 100 µM | HL-60 > 100 µM | SF-268 > 100 µM | UACC-62 > 100 µM | COLO 205 > 100 µM | UACC-257 > 100 µM | K562 > 100 µM | RXF 393 > 100 µM | MOLT-4 > 100 µM | SF-539 > 100 µM | NCI-H522 > 100 µM | CCRF-CEM > 100 µM | ACHN > 100 µM | HOP-62 > 100 µM | OVCAR-3 > 100 µM | A498 > 100 µM | NCI-H23 > 100 µM

O=c1[nH]c(=O)n(C2OC(CO)C(O)C2O)c2ccsc12 (stereo not drawn)
inactive: UO-31 > 100 µM | KM12 > 100 µM | SN12C > 100 µM | HL-60 > 100 µM | SF-268 > 100 µM | COLO 205 > 100 µM | UACC-257 > 100 µM | K562 > 100 µM | RXF 393 > 100 µM | MOLT-4 > 100 µM | SF-539 > 100 µM | NCI-H522 > 100 µM | SK-MEL-5 > 100 µM | CCRF-CEM > 100 µM | ACHN > 100 µM | HOP-62 > 100 µM | OVCAR-3 > 100 µM | A498 > 100 µM | NCI-H23 > 100 µM

CCOC(=O)[C@@]12NN=N[C@@H]1[C@H]1CO[C@H](c3ccccc3)N1C2=O
inactive: KM12 13.1 µM | SN12C 11.1 µM | HL-60 17.3 µM | SF-268 11 µM | UACC-62 7.6 µM | COLO 205 10.2 µM | UACC-257 6.44 µM | RXF 393 3.58 µM | MOLT-4 5.33 µM | SF-539 11.2 µM | NCI-H522 3.01 µM | SK-MEL-5 11.1 µM | CCRF-CEM 7.1 µM | ACHN 13.4 µM | HOP-62 14.5 µM | OVCAR-3 8.53 µM | A498 10.6 µM | NCI-H23 12.5 µM

N#Cc1c(O)n(-c2ccccc2)c(=O)c2c(N)n[nH]c12
inactive: UO-31 > 100 µM | KM12 42.4 µM | SN12C > 100 µM | HL-60 > 100 µM | SF-268 > 100 µM | UACC-62 31.3 µM | COLO 205 > 100 µM | UACC-257 > 100 µM | K562 56.4 µM | RXF 393 > 100 µM | MOLT-4 > 100 µM | SF-539 > 100 µM | NCI-H522 69.8 µM | SK-MEL-5 > 100 µM | OVCAR-3 > 100 µM | A498 > 100 µM | NCI-H23 > 100 µM

Oc1nc(S)nc2nc3c4cccnc4c4ccccc4c3nc12
inactive: UO-31 > 100 µM | KM12 79.8 µM | SN12C > 100 µM | HL-60 30.9 µM | SF-268 > 100 µM | UACC-62 > 100 µM | COLO 205 > 100 µM | UACC-257 > 100 µM | RXF 393 49.8 µM | MOLT-4 > 100 µM | SF-539 > 100 µM | NCI-H522 86.3 µM | SK-MEL-5 > 100 µM | CCRF-CEM 74.6 µM | ACHN > 100 µM | HOP-62 52.7 µM | OVCAR-3 > 100 µM | A498 > 100 µM | NCI-H23 > 100 µM

[O-][S+]1Cc2ccccc2CS1 (stereo not drawn)
inactive: UO-31 21.4 µM | KM12 35.1 µM | SN12C 14 µM | HL-60 15.1 µM | SF-268 22.9 µM | UACC-62 13.2 µM | COLO 205 15.4 µM | UACC-257 14.7 µM | K562 17.9 µM | RXF 393 15.9 µM | MOLT-4 15.4 µM | SF-539 11.4 µM | NCI-H522 6.81 µM | SK-MEL-5 43.2 µM | ACHN 18.8 µM | OVCAR-3 15.1 µM | A498 76.6 µM | NCI-H23 14.1 µM

Reference: ChEMBL document CHEMBL1201862, “PubChem BioAssay data set” (2004)
